Experimental data from PubChem BioAssay AID192 (DTP/NCI, 2004).
Where “and” joins values, the source holds several entries; their conditions need not be identical. Equal values may be shown once. Inconclusive results and toxic doses are left out. How the source made its calls: active means survival T/C of 150% or more; inactive means T/C below 125% in these data.

Tested on: BDF1 mice, B16 melanoma ip, median survival T/C
Assay: NCI In Vivo Anticancer Drug Screen. Data for tumor model B16 Melanoma (intraperitoneal) in B6D2F1 (BDF1) mice
Settings: endpoint: median survival time, higher = longer survival
Method in brief: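 In this screen, activity was judged from survival or tumor size in treated versus vehicle-treated tumor-bearing mice, reported as T/C.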

[1] = dose: 100.0 mg/kg/injection, schedule: Q04DX003 (ip), vehicle: saline
[2] = dose: 200.0 mg/kg/injection, schedule: Q04DX003 (ip), vehicle: saline
[3] = dose: 100.0 mg/kg/injection, schedule: Q01DX009 (ip), vehicle: Klucel (hydroxypropylcellulose) (HPC)
[4] = dose: 200.0 mg/kg/injection, schedule: Q01DX009 (ip), vehicle: Klucel (hydroxypropylcellulose) (HPC)
[5] = dose: 400.0 mg/kg/injection, schedule: Q01DX009 (ip), vehicle: Klucel (hydroxypropylcellulose) (HPC)
[6] = dose: 25.0 mg/kg/injection, schedule: Q04DX003 (ip), vehicle: Klucel (hydroxypropylcellulose) (HPC)
[7] = dose: 50.0 mg/kg/injection, schedule: Q04DX003 (ip), vehicle: Klucel (hydroxypropylcellulose) (HPC)
[8] = dose: 100.0 mg/kg/injection, schedule: Q04DX003 (ip), vehicle: Klucel (hydroxypropylcellulose) (HPC)
[9] = dose: 200.0 mg/kg/injection, schedule: Q04DX003 (ip), vehicle: Klucel (hydroxypropylcellulose) (HPC)
[10] = dose: 3.12 mg/kg/injection, schedule: Q01DX009 (ip), vehicle: Klucel (hydroxypropylcellulose) (HPC)
[11] = dose: 6.25 mg/kg/injection, schedule: Q01DX009 (ip), vehicle: Klucel (hydroxypropylcellulose) (HPC)
[12] = dose: 12.5 mg/kg/injection, schedule: Q01DX009 (ip), vehicle: Klucel (hydroxypropylcellulose) (HPC)
[13] = dose: 25.0 mg/kg/injection, schedule: Q01DX009 (ip), vehicle: Klucel (hydroxypropylcellulose) (HPC)
[14] = dose: 50.0 mg/kg/injection, schedule: Q01DX009 (ip), vehicle: Klucel (hydroxypropylcellulose) (HPC)
[15] = dose: 25.0 mg/kg/injection, schedule: Q01DX009 (ip), vehicle: saline with Tween-80
[16] = dose: 50.0 mg/kg/injection, schedule: Q01DX009 (ip), vehicle: saline with Tween-80
[17] = dose: 100.0 mg/kg/injection, schedule: Q01DX009 (ip), vehicle: saline with Tween-80
[18] = dose: 200.0 mg/kg/injection, schedule: Q01DX009 (ip), vehicle: saline with Tween-80
[19] = dose: 6.25 mg/kg/injection, schedule: Q01DX009 (ip), vehicle: saline
[20] = dose: 25.0 mg/kg/injection, schedule: Q01DX009 (ip), vehicle: saline

Measured: T/C

CC#CS(=O)(=O)C(C)(C)C
inactive: dose: 50.0 mg/kg/injection, schedule: Q04DX003 (ip), vehicle: saline 104 % of control | [1] 106 % of control | [2] 105 % of control

CCCCC(CCCC)(C(N)=O)C(=O)OCC
inactive: [3] 106 % of control | [4] 100 % of control | [5] 103 % of control

COc1ccc2nc3cc(Cl)ccc3c(Nc3ccc(O)c(CN(CCCl)CCCl)c3)c2c1
inactive: dose: 0.25 mg/kg/injection, schedule: Q01DX009 (ip), vehicle: saline 104 % of control | dose: 0.5 mg/kg/injection, schedule: Q01DX009 (ip), vehicle: saline 121 % of control | dose: 1.0 mg/kg/injection, schedule: Q01DX009 (ip), vehicle: saline 120 % of control

C=C1CCN(c2ccccc2)C1=O
inactive: dose: 4.0 mg/kg/injection, schedule: Q01DX009 (ip), vehicle: saline + alcohol 96 % of control | dose: 8.0 mg/kg/injection, schedule: Q01DX009 (ip), vehicle: saline + alcohol 116 % of control | dose: 16.0 mg/kg/injection, schedule: Q01DX009 (ip), vehicle: saline + alcohol 112 % of control | dose: 64.0 mg/kg/injection, schedule: Q01DX009 (ip), vehicle: saline + alcohol 107 % of control

CC1(C)C(C#N)C(=O)N=C(N)C1C(N)=O (centres undefined)
inactive: dose: 12.0 mg/kg/injection, schedule: Q04DX003 (ip), vehicle: Klucel (hydroxypropylcellulose) (HPC) 105 % of control | [6] 107 % of control | [7] 105 % of control | [8] 86 % of control and 100 % of control | [9] 91 % of control

CC1CCCN(c2ccc([N+](=O)[O-])cc2[N+](=O)[O-])C1 (centres undefined)
inactive: [3] 93 % of control | [5] 100 % of control

CN(C(=S)S(=O)(=O)C12CC3CC(CC(C3)C1)C2)c1ccccc1
inactive: [10] 98 % of control | [11] 98 % of control | [12] 95 % of control | [13] 95 % of control | [14] 88 % of control

C1CN2CCC1CC2
inactive: dose: 1.56 mg/kg/injection, schedule: Q01DX009 (ip), vehicle: saline with Tween-80 102 % of control | dose: 3.12 mg/kg/injection, schedule: Q01DX009 (ip), vehicle: saline with Tween-80 102 % of control | dose: 6.25 mg/kg/injection, schedule: Q01DX009 (ip), vehicle: saline with Tween-80 92 % of control and 99 % of control | dose: 12.5 mg/kg/injection, schedule: Q01DX009 (ip), vehicle: saline with Tween-80 86 % of control and 91 % of control | [15] 86 % of control and 91 % of control

CC(=O)N(C)O
inactive: [15] 98 % of control | [16] 107 % of control | [17] 101 % of control | [18] 103 % of control

COc1ccc(CN(CCN(C)C)c2ccccn2)cc1
inactive: [12] 100 % of control | [13] 96 % of control | [14] 93 % of control

CC(=O)n1cc(F)c(=O)[nH]c1=O
inactive: dose: 5.3 mg/kg/injection, schedule: Q01DX009 (ip), vehicle: Klucel (hydroxypropylcellulose) (HPC) 91 % of control | dose: 8.0 mg/kg/injection, schedule: Q01DX009 (ip), vehicle: Klucel (hydroxypropylcellulose) (HPC) 91 % of control | dose: 12.0 mg/kg/injection, schedule: Q01DX009 (ip), vehicle: Klucel (hydroxypropylcellulose) (HPC) 104 % of control | dose: 18.0 mg/kg/injection, schedule: Q01DX009 (ip), vehicle: Klucel (hydroxypropylcellulose) (HPC) 120 % of control | dose: 27.0 mg/kg/injection, schedule: Q01DX009 (ip), vehicle: Klucel (hydroxypropylcellulose) (HPC) 114 % of control

CN1CCC(=C2c3ccccc3C=Cc3ccccc32)CC1
inactive: dose: 3.12 mg/kg/injection, schedule: Q01DX009 (ip), vehicle: saline 110 % of control | [19] 102 % of control | [20] 105 % of control | dose: 50.0 mg/kg/injection, schedule: Q01DX009 (ip), vehicle: saline 105 % of control

CCO/C=C1\SC(=S)N(c2cccc(C)c2)C1=O
inactive: [12] 94 % of control | [13] 97 % of control | [14] 100 % of control | [3] 87 % of control | [8] 100 % of control | [9] 89 % of control | dose: 400.0 mg/kg/injection, schedule: Q04DX003 (ip), vehicle: Klucel (hydroxypropylcellulose) (HPC) 92 % of control

ClC1=C(Cl)C(Cl)(Cl)C(Cl)(Cl)C1(Cl)Cl
inactive: [3] 103 % of control

NC(=O)CC(N)C(=O)O.[Cl-].[Cl-].[Cl-].[Cl-].[Pt+2] (centres undefined)
inactive: dose: 1.56 mg/kg/injection, schedule: Q01DX009 (ip), vehicle: saline 114 % of control | dose: 3.13 mg/kg/injection, schedule: Q01DX009 (ip), vehicle: saline 122 % of control

Nc1nc(O)c(CC(=O)O)s1
inactive: [12] 88 % of control | [13] 91 % of control | [14] 95 % of control

COc1ccc(/C=C\C(=O)/C=C/c2ccc(OC)cc2)cc1
inactive: [6] 97 % of control | [7] 97 % of control | [8] 97 % of control

N=C(N)CCNC(=O)C1CCC(N)=N1 (centres undefined)
inactive: dose: 0.75 mg/kg/injection, schedule: Q01DX009 (ip), vehicle: saline 96 % of control | dose: 1.5 mg/kg/injection, schedule: Q01DX009 (ip), vehicle: saline 88 % of control | dose: 3.0 mg/kg/injection, schedule: Q01DX009 (ip), vehicle: saline 93 % of control | dose: 6.0 mg/kg/injection, schedule: Q01DX009 (ip), vehicle: saline 99 % of control

Cc1ccc2nc(-c3cc(Br)ccc3O)c(-c3cc(Br)ccc3O)nc2c1
inactive: [3] 90 % of control | [4] 88 % of control

CCC1(CC)CCC(Br)C(Br)C1 (centres undefined)
inactive: [17] 95 % of control | [18] 105 % of control | dose: 400.0 mg/kg/injection, schedule: Q01DX009 (ip), vehicle: saline with Tween-80 102 % of control

O=C1c2ccccc2S(=O)c2ccccc21
inactive: [3] 97 % of control | [4] 93 % of control

CC(=N)/C(C(=O)NC1CCCCC1)=C(/C)O
inactive: [1] 100 % of control | [2] 97 % of control | dose: 400.0 mg/kg/injection, schedule: Q04DX003 (ip), vehicle: saline 97 % of control

[CH3][Hg][O]C(C)=O
inactive: [10] 94 % of control | [11] 86 % of control

C[N+]1(C)CCCC1
inactive: [19] 111 % of control | dose: 6.25 mg/kg/injection, schedule: Q04DX003 (ip), vehicle: saline 95 % of control | dose: 12.5 mg/kg/injection, schedule: Q01DX009 (ip), vehicle: saline 100 % of control | dose: 12.5 mg/kg/injection, schedule: Q04DX003 (ip), vehicle: saline 95 % of control | [20] 91 % of control | dose: 25.0 mg/kg/injection, schedule: Q04DX003 (ip), vehicle: saline 95 % of control

CCC(C)(O)CCc1ccccc1 (centres undefined)
inactive: [3] 113 % of control | [4] 113 % of control | [5] 100 % of control

CS(=O)(=O)c1cnc2ccccc2n1
inactive: [15] 94 % of control | [16] 86 % of control

CSCCCCCCSC
inactive: [14] 93 % of control | [3] 105 % of control | [4] 106 % of control

[Cl][Pt+2][Cl].[NH-]CC(=O)O.[NH-]CC(=O)O
inactive: [15] 97 % of control | [16] 92 % of control
